This is an account of results in patent publication US7176228B2, “Pyrazole biphenylcarboxamides” (Bayer Cropscience AG, priority 2000, dated 2007).

One experiment concerns Alternaria solani. Kind of experiment: Alternaria test (tomato) / protective. In kind it is in vivo. Particulars: tomato plants, protective spray, application rate 750 g/ha, evaluation 7 days after inoculation. On the procedure: Alternaria Test (tomato)/Protective [table] To produce a suitable preparation of active compound, 1 part by weight of active compound is mixed with the stated amounts of solvent and emulsifier, and the concentrate is diluted with water to the desired concentration. To test for protective activity, young tomato plants are sprayed with the preparation of active compound at the stated application rate. 1 day after the treatment, the plants are inoculated with a spore suspension of Alternaria solani and then remain at 100% rel. humidity and 20° C. for 24 h. The plants then remain at 96% rel. atmospheric humidity and a temperature of 20° C. Evaluation is carried out 7 days after the inoculation. 0% means an efficacy which corresponds to that of the control, whereas an efficacy of 100% means that no infection is observed.

In a further experiment the test system is Podosphaera leucotricha. Kind of experiment: Podosphaera test (apple) / protective. Particulars: 240 h, apple plants, protective spray, application rate 100 g/ha, evaluation 10 days after inoculation, read-out: % Efficacy. In kind it is in vivo. On the procedure:
Podosphaera Test (apple)/Protective Solvent: 24.5 parts by weight of acetone • 24.5 parts by weight of dimethylacetamide Emulsifier; 1.0 part by weight of alkyl-aryl polyglycol ether To produce a suitable preparation of active compound, 1 part by weight of active compound is mixed with the stated amounts of solvent and emulsifier, and the concentrate is diluted with water to the desired concentration. To test for protectiv activity, young plants are sprayed with the preparation of active compound at the stated application rate. After the spray coating has dried on, the plants are inoculated with an aqueous spore suspension of the apple mildew pathogen Podosphaera leucotricha. The plants are then placed in a greenhouse at approximately 23° C. and a relative atmospheric humidity of approximately 70%. Evaluation is carried out 10 days after the inoculation. 0% means an efficacy which corresponds to that of the control, whereas an efficacy of 100% means that no infection is observed.

Experiment [1] deals with Gloeophyllum trabeum, Coniophora puteana, Poria placenta, Lentinus tigrinus and Coriolus versicolor. Kind of experiment: Inhibition test on giant colonies of Basidiomycetes. Particulars: inhibition of hyphal growth on malt extract peptone agar at 26° C., 6 ppm active compound; read-out: % efficacy. The class given is cell-based. As to the method: Inhibition Test on Giant Colonies of Basidiomycetes Mycelium sections were removed from colonies of Gloeophyllum trabeum, Coniophora puteana, Poria placenta, Lentinus tigrinus and Coriolus versicolor and incubated on an agar medium containing malt extract peptone at 26° C. The inhibition of hyphal growth on active-compound-containing media was compared with the longitudinal growth on media without an addition of active compound and rated as per cent inhibition.

The subject of the next experiment is Venturia inaequalis. Nature of the experiment: Venturia test (apple) / protective. The class given is in vivo. Particulars: 288 h, apple plants, protective spray, application rate 100 g/ha, evaluation 12 days after inoculation, read-out: % Efficacy. As to the method: Venturia Test (apple)/Protective [table] To produce a suitable preparation of active compound, 1 part by weight of active compound is mixed with the stated amounts of solvent and emulsifier, and the concentrate is diluted with water to the desired concentration. To test for protectivity activity, young plants are sprayed with the preparation of active compound at the stated application rate. After the spray coating has dried on, the plants are inoculated with an aqueous conidia suspension of the apple scab pathogen Venturia inaequalis and then remain in an incubation cabin at approximately 20° C. and 100% relative atmospheric humidity for 1 day. The plants are then placed in a greenhouse at approximately 21° C. and a relative atmospheric humidity of approximately 90%. Evaluation is carried out 12 days after the inoculation. 0% means an efficacy which corresponds to that of the control, whereas an efficacy of 100% means that no infection is observed.

The test system of a further experiment is Puccinia recondite. Nature of the experiment: Puccinia test (wheat) / protective. The class given is in vivo. Particulars: wheat plants, protective spray, application rate 250 g/ha, evaluation 10 days after inoculation. As to the method:
Puccinia Test (wheat)/Protective [table] To produce a suitable preparation of active compound, 1 part by weight of active compound is mixed with the stated amounts of solvent and emulsifier, and the concentrate is diluted with water to the desired concentration. To test for protective activity, young plants arc sprayed with the preparation of active compound at the stated application rate. After the spray coating has dried on, the plants are sprayed with a conidia suspension of Puccinia recondite. The plants remain in an incubation cabin at 20° C. and 100% relative atmospheric humidity for 48 hours. The plants are then placed in a greenhouse at a temperature of approximately 20° C. and a relative atmospheric humidity of 80% to promote the development of rust pustules. Evaluation is carried out 10 days after the inoculation. 0% means an efficacy which corresponds to that of the control, whereas an efficacy of 100% means that no infection is observed.

The subject of another experiment is Sphaerotheca fuliginea. Nature of the experiment: Sphaerotheca test (cucumber) / protective. In kind it is in vivo. Particulars: Podosphaera fuliginea, 240 h; cucumber plants, protective spray, application rate 100 g/ha, evaluation 10 days after inoculation; read-out: % Efficacy. As to the method:
Sphacrotheca Test (cucumber)/Protective [table] To produce a suitable preparation of active compound, 1 part by weight of active compound is mixed with the stated amounts of solvent and emulsifier, and the concentrate is diluted with water to the desired concentration. To test for protectivity activity, young plants are sprayed with the preparation of active compound at the stated application rate. After the spray coating has dried on, the plants are inoculated with an aqueous spore suspension of Sphaerotheca fuliginea. The plants are then placed in a greenhouse at approximately 23° C. and a relative atmospheric humidity of approximately 70%. Evaluation is carried out 10 days after the inoculation. 0% means an efficacy which corresponds to that of the control, whereas an efficacy of 100% means that no infection is observed.

Consider `CO/N=C/c1ccc(-c2ccccc2NC(=O)c2sc(C)nc2C(F)(F)F)cc1` [Example I-1], for which the “% Efficacy” value with Alternaria solani and with Puccinia recondite was 100% each time. For the same compound, the pest or weed control at 100 g/ha in the experiment with Podosphaera leucotricha, with Venturia inaequalis and in the experiment with Sphaerotheca fuliginea was 100% throughout. The Emax at 6 ppm in experiment [1] is 100%.
For `CO/N=C/c1cccc(-c2ccccc2NC(=O)c2sc(C)nc2C(F)(F)F)c1` [Example I-2], in the experiment on Alternaria solani, the “% Efficacy” value was 100%.
As to `CCCCO/N=C\c1ccc(-c2ccccc2NC(=O)c2sc(C)nc2C(F)(F)F)cc1` [Example I-3], the pest or weed control at 100 g/ha with Podosphaera leucotricha, with Venturia inaequalis and with Sphaerotheca fuliginea was 100% throughout. Besides, the “% Efficacy” value with Puccinia recondite was 100%.
As for `CCO/N=C\c1ccc(-c2ccccc2NC(=O)c2sc(C)nc2C(F)(F)F)cc1` [Example I-4], the pest or weed control at 100 g/ha is 95% in the experiment on Podosphaera leucotricha, 100% with Venturia inaequalis and 93% in the experiment on Sphaerotheca fuliginea.
The matching figures for `Cc1nc(C(F)(F)F)c(C(=O)Nc2ccccc2-c2ccc(/C=N\OC(C)C)cc2)s1` [Example I-5]: 100%, 100% and 100%.
On to `CO/N=C(\C)c1ccc(-c2ccccc2NC(=O)c2sc(C)nc2C(F)(F)F)cc1` [Example I-6], for which the “% Efficacy” value with Alternaria solani worked out at 90%.
As for `CO/N=C\c1ccc(-c2ccccc2NC(=O)c2cn(C)nc2C(F)(F)F)cc1` [Example I-10], the pest or weed control at 100 g/ha with Podosphaera leucotricha, in the experiment with Venturia inaequalis and in the experiment with Sphaerotheca fuliginea was 88% each time. Also, the Emax at 6 ppm in experiment [1] amounted to 100%. For the same compound, the “% Efficacy” value with Puccinia recondite is 100%.
For `CO/N=C/c1ccc(-c2ccccc2NC(=O)c2cn(C)nc2C(F)F)cc1` [Example I-11], the “% Efficacy” value in the experiment on Alternaria solani is recorded as 95%. Also, the pest or weed control at 100 g/ha in the experiment with Podosphaera leucotricha was found to be 93%; with Venturia inaequalis it was 100%; in the experiment with Sphaerotheca fuliginea, 95%. Further, in experiment [1], the Emax at 6 ppm is 100%.
Regarding `CO/N=C\c1ccc(-c2ccccc2NC(=O)c2cn(C)nc2C)cc1` [Example I-12], the Emax at 6 ppm in experiment [1] came out at 100%.
For the compound `CO/N=C\c1ccc(-c2ccccc2NC(=O)c2cccnc2Cl)cc1` [Example I-20], the pest or weed control at 100 g/ha in the experiment on Podosphaera leucotricha, in the experiment on Venturia inaequalis and in the experiment with Sphaerotheca fuliginea was 100% each time. The “% Efficacy” value in the experiment with Puccinia recondite amounted to 100%.
On to `CCCCO/N=C/c1ccc(-c2ccccc2NC(=O)c2cn(C)nc2C(F)(F)F)cc1` [Example I-22], for which the pest or weed control at 100 g/ha in the experiment on Podosphaera leucotricha, in the experiment with Venturia inaequalis and in the experiment on Sphaerotheca fuliginea was 100% throughout.
For the compound `CCCO/N=C/c1ccc(-c2ccccc2NC(=O)c2sc(C)nc2C(F)(F)F)cc1` [Example I-23], the pest or weed control at 100 g/ha in the experiment with Podosphaera leucotricha, with Venturia inaequalis and with Sphaerotheca fuliginea was 100% throughout.
For the compound `CCO/N=C(/C)c1ccc(-c2ccccc2NC(=O)c2cn(C)nc2C(F)(F)F)cc1` [Example I-24], the pest or weed control at 100 g/ha in the experiment with Podosphaera leucotricha was 75%; in the experiment on Venturia inaequalis, 100%; with Sphaerotheca fuliginea, 92%.
The like results for `CC(C)O/N=C/c1ccc(-c2ccccc2NC(=O)c2cn(C)nc2C(F)(F)F)cc1` [Example I-26] were, in that order, 100%, 100% and 100%.
The like results for `CCCO/N=C/c1ccc(-c2ccccc2NC(=O)c2cn(C)nc2C(F)(F)F)cc1` [Example I-28] were, in that order, 99%, 100% and 100%.
As to `Cn1cc(C(=O)Nc2ccccc2-c2ccc(/C=N\O)cc2)c(C(F)(F)F)n1` [Example I-41], the values for the pest or weed control at 100 g/ha with Podosphaera leucotricha, in the experiment on Venturia inaequalis and in the experiment on Sphaerotheca fuliginea were 98%, 100% and 72%, respectively.
The like results for `CO/N=C/c1ccc(-c2ccccc2NC(=O)c2sccc2C)cc1` [Example I-47] were, in that order, 100%, 100% and 100%.
As to `CO/N=C/c1ccc(-c2ccccc2NC(=O)c2cn(C)nc2C(F)(F)F)cc1Cl` [Example I-49], the pest or weed control at 100 g/ha in the experiment with Podosphaera leucotricha, in the experiment on Venturia inaequalis and in the experiment on Sphaerotheca fuliginea was 100% throughout. In addition, the “% Efficacy” value with Puccinia recondite is on record as 100%.
On to `CO/N=C\c1cc(-c2ccccc2NC(=O)c2cn(C)nc2C(F)(F)F)ccc1/C=N/OC` [Example I-50], for which the results for the pest or weed control at 100 g/ha in the experiment with Podosphaera leucotricha, with Venturia inaequalis and in the experiment with Sphaerotheca fuliginea were 93%, 100% and 97%, respectively.
In the case of `CO/N=C/c1ccc(-c2c(C)cccc2NC(=O)c2sc(C)nc2C(F)(F)F)cc1` [Example I-51], the pest or weed control at 100 g/ha with Podosphaera leucotricha, in the experiment on Venturia inaequalis and in the experiment on Sphaerotheca fuliginea was 100% in each case. For the same compound, in the experiment with Puccinia recondite, the “% Efficacy” value was found to be 100%.
For the compound `CO/N=C/c1cccc(-c2ccccc2NC(=O)c2cn(C)nc2C(F)(F)F)c1` [Example I-52], the values for the pest or weed control at 100 g/ha with Podosphaera leucotricha, in the experiment on Venturia inaequalis and in the experiment with Sphaerotheca fuliginea were 77%, 100% and 97%, respectively.
